Patent EP4813381A1, “PHARMACEUTICAL USE OF GUAIANE SESQUITERPENE DERIVATIVE” (Nanjing University Of Chinese Medicine, priority 2023, dated 2025)
In brackets after ≈: the same amount, converted by molar mass. Blank lines part the entries; values can stand above or below the compound they belong to.

Key:
MDSCs = test: Inhibition of MDSC chemotaxis (Transwell, Hepa1-6 tumor-conditioned medium); assay type: cell-based, mice; conditions: 12 h treatment, 24 h Transwell
Method: Hepa1-6 mouse hepatocellular carcinoma cells were uniformly seeded into 6-well plates. After cells reached confluence, supernatant was aspirated, and 1-1.5 mL fresh medium was added to each well. Following 24 h culture, supernatant was collected, centrifuged at 1600 rpm for 5 min, aspirated, and filtered through a 0.22 µm membrane to obtain tumor-conditioned medium for subsequent use. Euthanize mice by cervical dislocation and immerse in 75% ethanol solution for 5 min. Under sterile conditions, remove the tibia, cut both ends of the bone, and aspirate the bone marrow into a 1 mL syringe. Repeat flushing into a 15 mL centrifuge tube. Centrifuge at 1600 rpm for 5 min to collect bone marrow cells. Wash twice with 1×PBS. Resuspend cells in complete RPMI 1640 medium containing cytokines GM-CSF (10 ng/mL) and IL-4 (10 ng/mL) to stimulate differentiation into MDSCs. Count cells, adjust density to 1×10^6 cells/mL, and uniformly seed into 24-well plates at 300 µL per well. […] Centrifuge at 1600 rpm for 5 min, remove supernatant, resuspend cells in 300 µL fresh medium, and place into Transwell chambers. Add 600 µL normal medium (control group) or tumor-conditioned medium (model group) to the lower chamber. Co-culture for 24 h.

CCR2 mRNA = CCR2 mRNA level in MDSCs (PCR); assay type: cell-based, mice; conditions: CCR2 mRNA levels in MDSCs, 2 h
Method: Mice were euthanized by cervical dislocation and immersed in 75% ethanol solution for 5 min. Under sterile conditions, the tibia was removed, both ends of the bone were cut, and bone marrow was repeatedly flushed into a 15 mL centrifuge tube using a 1 mL syringe filled with culture medium. Centrifuge at 1600 rpm for 5 min to collect bone marrow cells. Wash twice with 1×PBS, then resuspend in RPMI 1640 complete medium containing GM-CSF (10 ng/mL) + IL-4 (10 ng/mL) and transfer to a cell culture dish to stimulate differentiation of bone marrow cells into MDSCs. Count cells and adjust density to 1 × 10^6 cells/mL in complete medium. Seed cells uniformly into 6-well plates at 2 mL per well. […] After incubation, collect cells into centrifuge tubes, centrifuge at 1600 rpm for 5 min, wash once with 1×PBS, and add 500 µL RNA extraction reagent to each tube. After centrifugation to obtain the pellet, add 20 µL DEPC-treated water to each tube to dissolve the pellet. Determine RNA concentration and reverse transcribe to cDNA. Add the cDNA, primers, and reverse transcriptase to a 96-well plate. Centrifuge at 4000 rpm for 5 min, then place in a PCR instrument for detection.

Hepa1-6 cells = test: Hepa1-6 mouse hepatocellular carcinoma subcutaneous xenograft model; assay type: in vivo, C57BL/6 mice
Method: (§1) Hepa1-6 cells were cultured and expanded in vitro. An appropriate amount of cells in the logarithmic growth phase was resuspended in a mixture of serum-free DMEM medium and Matrigel (1:1). under aseptic conditions to prepare a 2.5×10^6/100 µL cell suspension. A 100 µL aliquot of this suspension was injected subcutaneously into the left forearm axilla of male C57BL/6 mice. […] Daily oral administration was performed for 2 weeks. During the treatment period, mouse body weight and tumor diameter were measured daily. At the end of the experiment, mice were euthanized by cervical dislocation, and tumors were removed for weighing. Tumor volume (TV) was calculated using the formula: TV = 1/2 × a × b^2, where a represents the longest diameter of the tumor and b represents the shortest diameter.

H22 cells = tested on: H22 cells; set-up: species or system BALB/c mice; conditions: mouse, in vivo, po
Method: as §1, with “H22” for “Hepa1-6”, “An appropriate amount of cells in the logarithmic growth phase was resuspended in a mixture of serum-free DMEM medium and Matrigel (1:1). under aseptic conditions to prepare a 2.5×10^6/100 µL cell suspension.” left out, “forelimb” for “forearm”, “BALB/c” for “C57BL/6”

MDSCs; T cells = tested on: MDSCs; T cells; set-up: species or system BALB/c mice; conditions: mouse, in vivo, po
Method: as §1, with “H22” for “Hepa1-6”, “An appropriate amount of cells in the logarithmic growth phase was resuspended in a mixture of serum-free DMEM medium and Matrigel (1:1). under aseptic conditions to prepare a 2.5×10^6/100 µL cell suspension.” left out, “forelimb” for “forearm”, “BALB/c” for “C57BL/6”
Once all tumors were dissected, nail-sized tumor pieces were transferred to 1.5 mL Eppendorf tubes and minced with scissors. […] After digestion, pass the mixture through a 200-mesh sieve to obtain the tumor cell suspension. […] Position the spleen on a 200-mesh cell strainer. Gently press the spleen using a 10 mL syringe needle. […] Transfer the washed splenocyte suspension into a 15 mL centrifuge tube. Centrifuge at 1600 rpm for 5 min to collect cells. Wash once with 1×PBS. Add 3 mL red blood cell lysis buffer (diluted with ddH2O) to each tube and incubate for 5 min. After lysis, add 10 mL 1×PBS to each tube to terminate lysis. Centrifuge at 1600 rpm for 5 min. Add 1 mL 1×PBS to each 15 mL centrifuge tube, transfer to 1.5 mL EP tubes, and centrifuge at 1600 rpm for 5 min. Add 1 mL 1×PBS to each tube containing stained tumor cells and lysed spleen cells for one wash, centrifuge at 1600 rpm for 5 min, and remove the supernatant.
Once all tumors were dissected, nail-sized tumor pieces were transferred to 1.5 mL Eppendorf tubes and minced with scissors. […] After digestion, pass the mixture through a 200-mesh sieve to obtain the tumor cell suspension. Centrifuge the resulting tumor suspension at 1600 rpm for 5 min, aspirate the supernatant, resuspend cells in 1 mL of 1×PBS per tube. […] Position the spleen on a 200-mesh cell strainer. Gently press the spleen using a 10 mL syringe needle. […] Transfer the splenocyte suspension into a 15 mL centrifuge tube. Centrifuge at 1600 rpm for 5 min to collect cells. Wash once with 1×PBS. Add 3 mL red blood cell lysis buffer (diluted with ddH2O) to each tube and incubate for 5 min. After lysis, add 10 mL 1×PBS to each tube to terminate lysis. Centrifuge at 1600 rpm for 5 min.

CT26 cells = assay type: in vivo, BALB/c mice
4T1 cells = assay type: in vivo, BALB/c mice
Method: 4T1 cells were cultured and expanded in vitro. […] A 100 µL aliquot of this suspension was injected subcutaneously into the left forelimb axilla of female BALB/c mice. […] Daily oral administration was performed for 3 weeks. During the treatment period, mouse body weight and tumor diameter were measured daily. At the end of the experiment, mice were euthanized by cervical dislocation, and tumors were removed for weighing. Tumor volume (TV) was calculated using the formula: TV = 1/2 × a × b^2, where a represents the longest diameter of the tumor and b represents the shortest diameter.

[1] = target: farnesyltransferase (FTase) (Homo sapiens, UniProt P49354+P49356); conditions: in vitro; cited from earlier work
[2] = gastric fluid, within 8 hours; cited from earlier work
[3] = in vivo; cited from earlier work
tumor cells = conditions: in vitro cell models; cited from earlier work
Hepa1-6 = conditions: 30 mg/kg intraperitoneal injection, 14 consecutive days; cited from earlier work
physchem = conditions: deionized water, 37 °C, thermodynamic from solid
[4] = Hepa1-6, oral 40 µmol/kg/d, 2 weeks

Chain of farnesyltransferase (FTase) (P49356 whole entry, one chain of several): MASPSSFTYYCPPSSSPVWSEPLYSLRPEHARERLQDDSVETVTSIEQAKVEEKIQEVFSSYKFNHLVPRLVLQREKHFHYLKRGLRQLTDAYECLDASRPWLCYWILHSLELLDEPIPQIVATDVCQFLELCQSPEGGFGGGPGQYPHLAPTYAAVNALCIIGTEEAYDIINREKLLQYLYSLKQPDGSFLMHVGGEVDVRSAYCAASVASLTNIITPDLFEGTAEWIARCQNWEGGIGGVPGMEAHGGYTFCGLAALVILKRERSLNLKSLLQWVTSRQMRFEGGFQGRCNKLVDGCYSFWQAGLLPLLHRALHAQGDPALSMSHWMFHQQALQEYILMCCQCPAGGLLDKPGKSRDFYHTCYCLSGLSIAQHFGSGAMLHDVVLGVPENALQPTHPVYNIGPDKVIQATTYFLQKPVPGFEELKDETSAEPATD

SMILES: C=C1C(=O)O[C@@H]2[C@H]3C(C)=CC[C@@]34O[C@@]4(C)CC[C@@H]12 [Arg, Arglabin]
Suppression Rate (%) (MDSCs; 1 µM): 42.5%
Suppression Rate (%) (MDSCs; 10 µM): 73.2%
CCR2 mRNA suppression rate in MDSCs (%) (CCR2 mRNA; 1 µM): 22.3%
CCR2 mRNA suppression rate in MDSCs (%) (CCR2 mRNA; 10 µM): 69.7%
Tumor Inhibition Rate (%) (Hepa1-6 cells; mouse, in vivo, po): 95.86%
Tumor weight (Hepa1-6 cells; mouse, in vivo, po): 0.04 ± 0.03 g
Tumor Suppression Rate (%) (H22 cells): 39.43%
Tumor weight (H22 cells): 5.18 ± 0.61 g
Spleen MDSCs (%) (MDSCs; T cells): 27.89±4.72 %
Spleen T cells (%) (MDSCs; T cells): 27.02±4.07%
Tumor T cells(%) (MDSCs; T cells): 17.72±6.12 %
Tumor-associated MDSCs (%) (MDSCs; T cells): 27.0±7.93 %
antitumor effects (CT26 cells; CT26, oral 80 µmol/kg/day, 3 weeks): tumor-inhibiting effects
Tumor Inhibition Rate (%) (CT26 cells; mouse, in vivo, po): 34.94%
Tumor weight (CT26 cells; mouse, in vivo, po): 5.31 ± 0.51 g
antitumor effects (4T1 cells; 4T1, oral 40 µmol/kg/day, 3 weeks): no significant antitumor effects
Tumor Inhibition Rate (%) (4T1 cells; mouse, in vivo, po): 12.87%
Tumor weight (4T1 cells; mouse, in vivo, po): 1.58 ± 0.21 g
IC50 [1]: micromolar level
degradation rate [2]: 50%
oral bioavailability [3]: 5%

solubility (physchem): 62 µg/mL (≈ 250 µM)
SMILES: C=C1C(=O)O[C@H]2[C@H]1CCC(C)=C1CC[C@@](C)(O)[C@@H]12 [MCL, Micheliolide]
Tumor Inhibition Rate (%) (Hepa1-6 cells; [4]): 70.52%
Tumor weight (Hepa1-6 cells; [4]): 0.27 ± 0.24 g
IC50 (tumor cells): micromolar range
tumor weight inhibition rate (Hepa1-6): 50%
